Test results reported in the supplement of paper PMC8882468.

What was measured:
[1] = system: HCI-027 (organoid from a triple-negative breast cancer xenograft); assay: CTG-3D luminescence at 96 h relative to day-0 seeding control (ratio to day 0); higher = more growth / less cytotoxicity; PDxO 3D drug screen, 96 h, CTG-3D normalised to day-0 seeding control.
[2] = system: HCI-003.E2 (organoid from an ER-positive breast cancer xenograft); assay: as above
[3] = system: HCI-025 (organoid from a breast cancer xenograft); assay: as above
[4] = system: HCI-016 (organoid from a triple-negative breast cancer xenograft); assay: as above
[5] = system: HCI-024 (organoid from a breast cancer xenograft); assay: as above
[6] = system: HCI-012 (organoid from a breast cancer xenograft); assay: CTG-3D luminescence at 96 h relative to day-0 seeding control (ratio to day 0); higher = more growth / less cytotoxicity; PDxO 3D drug screen (set 2), 96 h, CTG-3D normalised to day-0 seeding control.

O=C(c1ccc(F)c(F)c1Nc1ccc(I)cc1F)N1CC(O)([C@@H]2CCCCN2)C1 [cobimetinib]
CTG-3D luminescence at 96 h
Conditions	12.5 pM	0.00025 µM	0.005 µM	0.1 µM	1 µM	10 µM	100 µM	625 fM
[1], days in culture: 176	2.03	1.26	2.15	1.13	1.04	0.17	0.0169	1.76
[1], days in culture: 194	1.89	1.29	1.38	1.42	1.56	0.796	0.014	1.65
[1], days in culture: 201	1.99	1.85	1.63	1.68	0.995	0.365	0.0102	2.09
[3], days in culture: 172	2.78	1.47	2.47	1.38	1.47	0.608	-0.00396	2.94
[3], days in culture: 209	1.76	1.67	2.01	1.27	1.15	1.26	-0.00298	1.83
[3], days in culture: 218	1.65	2.13	1.88	1.42	1.18	1.58	-0.00137	1.71
[4], days in culture: 153	3.32	1.63	2.26	1.1	1.56	1.38	0.0036	2.59
[4], days in culture: 172	2.03	1.92	1.82	0.984	1.38	0.776	0.0013	1.63
[4], days in culture: 190	1.55	1.08	1.45	1	0.91	0.962	0.00248	1.37
[4], days in culture: 199	1.61	1.48	1.59	1.4	1.28	1.19	0.00262	1.78
[5], days in culture: 105	1.71	1.74	1.38	1.36	0.803	0.316	-0.00552	2.08
[5], days in culture: 122	2.66	2.28	2.13	1.03	0.873	0.979	-0.000547	3.01
[5], days in culture: 163	1.51	2.19	1.89	2.26	1.17	0.872	-0.0079	2.15

[2]
Conditions	CTG-3D luminescence at 96 h
12.5 pM	2.11
0.00025 µM	2.48
0.005 µM	1.98
0.1 µM	2.18
1 µM	1.66
10 µM	1.64
100 µM	0.00926
625 fM	1.93

CO[C@H]1C[C@@H]2CC[C@@H](C)[C@@](O)(O2)C(=O)C(=O)N2CCCC[C@H]2C(=O)O[C@H]([C@H](C)C[C@@H]2CC[C@@H](O)[C@H](OC)C2)CC(=O)[C@H](C)/C=C(\C)[C@@H](O)[C@@H](OC)C(=O)[C@H](C)C[C@H](C)/C=C/C=C/C=C/1C [rapamycin]
CTG-3D luminescence at 96 h, [6]
Conditions	12.5 pM	0.00025 µM	0.005 µM	0.1 µM	1 µM	10 µM	100 µM	625 fM
days in culture: 214	2.2	1.93	1.66	1.12	1.43	1.48	0.0123	1.33
days in culture: 243	1.69	1.66	1.47	1.74	1.31	1.75	0.0176	1.93
days in culture: 256	2.19	1.95	1.54	1.81	1.91	1.19	0.0101	2.38
days in culture: 284	1.84	2.05	1.19	1.44	1.29	1.76	0.0121	3.62

CS(=O)(=O)CCNCc1ccc(-c2ccc3ncnc(Nc4ccc(OCc5cccc(F)c5)c(Cl)c4)c3c2)o1 [lapatinib]
CTG-3D luminescence at 96 h, [6]
Conditions	12.5 pM	0.00025 µM	0.005 µM	0.1 µM	1 µM	10 µM	100 µM	625 fM
days in culture: 214	2.69	3.04	1.24	2.07	1.18	0.474	0.0116	2.99
days in culture: 243	2.16	2.36	2.03	2.3	1.73	1.17	0.00575	2.33
days in culture: 256	1.96	2.5	2.14	2.69	1.63	1.22	0.0102	2.35
days in culture: 284	1.64	2.45	1.64	2.11	1.41	0.504	-0.00107	3.12

Nc1cc(C(F)(F)F)c(-c2cc(N3CCOCC3)nc(N3CCOCC3)n2)cn1 [buparlisib]
CTG-3D luminescence at 96 h, [6]
Conditions	12.5 pM	0.00025 µM	0.005 µM	0.1 µM	1 µM	10 µM	100 µM	625 fM
days in culture: 214	1.75	3.34	1.48	2.51	1.02	0.314	0.0491	2.11
days in culture: 243	1.8	2.97	2.35	2.4	1.59	0.242	0.0324	2.37
days in culture: 256	2.19	2.45	2.12	2.99	1.05	0.138	0.0266	1.97
days in culture: 284	1.86	2.37	1.96	2.4	1.3	0.282	0.0339	3.54

CCOc1ccn(-c2ccc(F)cc2)c(=O)c1C(=O)Nc1ccc(Oc2ccnc(N)c2Cl)c(F)c1 [ASLAN002]
CTG-3D luminescence at 96 h, [6]
Conditions	12.5 pM	0.00025 µM	0.005 µM	0.1 µM	1 µM	10 µM	100 µM	625 fM
days in culture: 214	1.99	2.84	1.41	1.72	1.55	2.81	0.653	2.47
days in culture: 243	1.95	2.84	1.9	2.45	2.19	3.71	1.7	2.43
days in culture: 256	1.93	1.9	1.8	2.77	1.71	1.78	1.29	2.4
days in culture: 284	1.86	2.58	1.82	2.49	2.18	2.98	1.4	2.81

CC(=O)O[C@@]12CO[C@@H]1C[C@H](O)[C@@]1(C)C(=O)[C@H](O)C3=C(C)[C@@H](OC(=O)[C@H](O)[C@@H](NC(=O)OC(C)(C)C)c4ccccc4)C[C@@](O)([C@@H](OC(=O)c4ccccc4)[C@H]21)C3(C)C [docetaxel]
CTG-3D luminescence at 96 h, [6]
Conditions	12.5 pM	0.00025 µM	0.005 µM	0.1 µM	1 µM	10 µM	100 µM	625 fM
days in culture: 214	1.03	0.8	0.461	0.578	0.404	0.777	0.105	0.817
days in culture: 243	1.3	1.44	0.758	0.52	0.65	0.926	0.441	1.69
days in culture: 256	2.14	2.22	1.58	0.695	0.649	0.506	0.405	2.16
days in culture: 284	2.14	3.21	1.16	0.569	0.537	0.49	0.0331	4.21

CC(=O)c1c(C)c2cnc(Nc3ccc(N4CCNCC4)cn3)nc2n(C2CCCC2)c1=O [palbociclib]
CTG-3D luminescence at 96 h, [6]
Conditions	12.5 pM	0.00025 µM	0.005 µM	0.1 µM	1 µM	10 µM	100 µM	625 fM
days in culture: 214	2.51	1.31	1.58	1.96	2.63	2.66	0.494	1.78
days in culture: 243	2.23	2.46	1.58	2.71	2.27	2.37	1.29	3.76
days in culture: 256	1.88	2.23	1.63	3.14	2.13	1.8	0.605	2.46
days in culture: 284	1.65	2.5	2.04	2.56	1.9	2.78	0.731	4.06

Cc1c(CN2CCN(C(=O)[C@H](C)O)CC2)sc2c(N3CCOCC3)nc(-c3cnc(N)nc3)nc12 [apitolisib]
CTG-3D luminescence at 96 h, [6]
Conditions	12.5 pM	0.00025 µM	0.005 µM	0.1 µM	1 µM	10 µM	100 µM	625 fM
days in culture: 214	3.46	3.38	1.52	1.74	0.672	0.176	0.0363	3.26
days in culture: 243	2.34	2.6	2.13	1.48	0.554	0.118	0.0299	2.51
days in culture: 256	2.08	2.2	2.08	2.67	0.805	0.1	0.0191	2.05
days in culture: 284	2.16	2.93	1.47	1.97	0.681	0.102	0.0089	3.29

COc1cccc2c1C(=O)c1c(O)c3c(c(O)c1C2=O)C[C@@](O)(C(=O)CO)C[C@@H]3O[C@H]1C[C@H](N)[C@@H](O)[C@H](C)O1 [epirubicin]
CTG-3D luminescence at 96 h, [6]
Conditions	12.5 pM	0.00025 µM	0.005 µM	0.1 µM	1 µM	10 µM	100 µM	625 fM
days in culture: 214	2.15	2.5	1.28	0.214	0.0452	0.0186	-0.0053	5.03
days in culture: 243	1.9	2.59	1.74	0.228	0.0532	0.0739	-0.006	2.23
days in culture: 256	1.75	2.22	1.73	0.43	0.059	0.0309	-0.0077	2.4
days in culture: 284	1.9	2.3	1.39	0.413	0.0294	0.0662	-0.00241	3.07

CO[C@H]1C[C@@H]2CC[C@@H](C)[C@@](O)(O2)C(=O)C(=O)N2CCCC[C@H]2C(=O)O[C@H]([C@H](C)C[C@@H]2CC[C@@H](OCCO)[C@H](OC)C2)CC(=O)[C@H](C)/C=C(\C)[C@@H](O)[C@@H](OC)C(=O)[C@H](C)C[C@H](C)/C=C/C=C/C=C/1C [everolimus]
CTG-3D luminescence at 96 h, [6]
Conditions	12.5 pM	0.00025 µM	0.005 µM	0.1 µM	1 µM	10 µM	100 µM	625 fM
days in culture: 214	2.76	1.49	1.21	1.84	1.41	1.69	-0.000454	2.25
days in culture: 243	1.34	2.16	1.46	1.87	1.38	2.11	-0.000228	1.9
days in culture: 256	2.03	1.8	1.71	2.19	1.42	1.38	-0.00358	1.92
days in culture: 284	1.39	1.69	1.18	1.72	0.508	0.327	-0.00211	2.6
